Assay results published in ChEMBL document CHEMBL4393710, “Discovery of Dioxino[2,3-f]quinazoline derivative VEGFR-2 inhibitors exerting significant antipro-liferative activity in HUVECs and mice” (Eur J Med Chem, 2019).

How the values were obtained:
[1] = system: HEK293; assay: Antiproliferative activity against HEK293 cells incubated for 72 hrs by CCK8 assay; conditions: Homo sapiens, HEK293, 72 h
[2] = system: L02; assay: Antiproliferative activity against human LO2 cells incubated for 72 hrs by CCK8 assay; conditions: L02, 72 h
[3] = system: HUVEC; assay: Inhibition of VEGF-induced cell proliferation of HUVEC incubated for 72 hrs by CCK8 assay; conditions: Homo sapiens
[4] = target: Vascular endothelial growth factor receptor 2 (Homo sapiens, UniProt P35968); assay: Inhibition of human N-terminal GST-tagged VEGFR2 cytoplasmic domain (790 to 1356 residues) expressed in baculovirus expression system using Ulight-JAK-1(Tyr1023) peptide as substrate preincubated for 30 mins followed by substrate addition and measured after 60 mins by spectrometric method
Vascular endothelial growth factor receptor 2, sequence (P35968 whole entry, the tested form may be a part): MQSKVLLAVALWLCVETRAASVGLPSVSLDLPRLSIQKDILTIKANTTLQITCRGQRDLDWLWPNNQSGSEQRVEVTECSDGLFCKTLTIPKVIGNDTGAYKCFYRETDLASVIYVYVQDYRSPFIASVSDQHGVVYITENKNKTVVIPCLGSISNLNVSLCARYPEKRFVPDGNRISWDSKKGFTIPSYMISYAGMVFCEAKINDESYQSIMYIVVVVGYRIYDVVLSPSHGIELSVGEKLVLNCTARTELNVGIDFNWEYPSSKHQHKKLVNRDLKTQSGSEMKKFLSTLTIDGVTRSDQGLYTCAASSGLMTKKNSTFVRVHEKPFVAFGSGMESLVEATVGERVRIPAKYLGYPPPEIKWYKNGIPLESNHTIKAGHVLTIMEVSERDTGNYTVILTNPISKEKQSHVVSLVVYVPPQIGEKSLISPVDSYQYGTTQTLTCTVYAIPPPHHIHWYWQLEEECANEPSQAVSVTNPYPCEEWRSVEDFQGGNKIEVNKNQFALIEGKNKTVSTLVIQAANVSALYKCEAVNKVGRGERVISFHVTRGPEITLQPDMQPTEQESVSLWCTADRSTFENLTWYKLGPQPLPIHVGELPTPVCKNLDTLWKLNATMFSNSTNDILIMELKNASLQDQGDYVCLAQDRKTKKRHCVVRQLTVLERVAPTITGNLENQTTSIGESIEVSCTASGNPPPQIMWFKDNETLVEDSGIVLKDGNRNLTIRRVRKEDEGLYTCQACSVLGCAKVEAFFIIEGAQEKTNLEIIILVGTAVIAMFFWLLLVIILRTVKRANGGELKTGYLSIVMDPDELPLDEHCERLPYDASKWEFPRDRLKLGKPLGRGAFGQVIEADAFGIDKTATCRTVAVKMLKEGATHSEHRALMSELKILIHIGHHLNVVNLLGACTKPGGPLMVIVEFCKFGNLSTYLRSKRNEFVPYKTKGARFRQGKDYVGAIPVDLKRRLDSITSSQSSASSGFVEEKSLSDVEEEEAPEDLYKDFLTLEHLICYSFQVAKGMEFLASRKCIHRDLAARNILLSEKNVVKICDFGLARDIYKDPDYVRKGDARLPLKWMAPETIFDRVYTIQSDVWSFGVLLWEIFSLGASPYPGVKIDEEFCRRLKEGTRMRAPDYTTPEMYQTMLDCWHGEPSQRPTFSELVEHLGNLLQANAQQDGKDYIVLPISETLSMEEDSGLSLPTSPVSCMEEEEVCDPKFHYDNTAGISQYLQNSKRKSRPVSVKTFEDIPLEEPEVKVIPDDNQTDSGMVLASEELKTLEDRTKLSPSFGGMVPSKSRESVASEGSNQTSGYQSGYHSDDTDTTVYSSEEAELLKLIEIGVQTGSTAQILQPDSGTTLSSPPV

[5] = system: SMMC-7721; assay: Antiproliferative activity against human SMMC7721 cells incubated for 72 hrs by CCK8 assay; type: functional, cell-based; conditions: SMMC-7721, 72 h
[6] = system: SMMC-7721; assay: Antitumor activity against human SMMC7721 cells xenografted in nude mouse assessed as tumor volume at 60 mg/kg, po administered daily for 6 days and measured on day 6 (reference value: 1990.2 +/- 179.2 mm3); type: functional
[7] = system: SMMC-7721; assay: Antitumor activity against human SMMC7721 cells xenografted in nude mouse assessed as tumor volume at 60 mg/kg, po administered daily for 6 days and measured on day 9 (reference value: 3005.8 +/- 225.3 mm3); type: functional
[8] = system: SMMC-7721; assay: Antitumor activity against human SMMC7721 cells xenografted in nude mouse assessed as tumor growth inhibition at 60 mg/kg, po administered daily for 6 days and measured on day 6 relative to control; type: functional; conditions: SMMC-7721, po, 144 h, read-out: TGI
[9] = system: SMMC-7721; assay: Antitumor activity against human SMMC7721 cells xenografted in nude mouse assessed as tumor growth inhibition at 60 mg/kg, po administered daily for 6 days and measured on day 9 relative to control; type: functional; conditions: SMMC-7721, po, read-out: TGI
[10] = Toxicity in nude mouse xenografted with human SMMC7721 cells assessed as mortality at 60 mg/kg, po administered daily for 6 days; type: organism-based; conditions: in vivo, 144 h
[11] = Toxicity in nude mouse xenografted with human SMMC7721 cells assessed as side effect at 60 mg/kg, po administered daily for 6 days; type: organism-based; conditions: in vivo, 144 h
[12] = Toxicity in nude mouse xenografted with human SMMC7721 cells assessed as change in body weight at 60 mg/kg, po administered daily for 6 days and measured every 3 days; type: organism-based; conditions: in vivo

IC50 [4] [nM]	SMILES	IC50 [1] [nM]	IC50 [2] [nM]	IC50 [3] [nM]	other results
	CC(C)Oc1cc2ncnc(Oc3ccc(NC(=O)Nc4cc(C(F)(F)F)ccc4F)cc3)c2c2c1OCCO2	3560	5180	4.2	
1.5	O=C(Nc1ccc(Oc2ncnc3cc(OCCCN4CCOCC4)c4c(c23)OCCO4)cc1)Nc1cc(C(F)(F)F)ccc1F	994	1010	2.3	
	O=C(Nc1ccc(Oc2ncnc3cc(OCCCN4CCOCC4)c4c(c23)OCCO4)cc1F)Nc1cc(C(F)(F)F)ccc1F	1160	1510	4.7	
1.5	COc1cc2ncnc(Oc3ccc(NC(=O)Nc4cc(C(F)(F)F)ccc4F)cc3)c2c2c1OCCO2	2880	2190	1.7	
3.4	O=C(Nc1ccc(Oc2ncnc3cc(OCCCN4CCOCC4)c4c(c23)OCCO4)c(F)c1)Nc1cc(C(F)(F)F)ccc1F	700	801	1.5	
1.7	COCCOc1cc2ncnc(Oc3ccc(NC(=O)Nc4cc(C(F)(F)F)ccc4F)cc3)c2c2c1OCCO2	894	1160	1.1	
	COc1cccc(NC(=O)Nc2ccc(Oc3ncnc4cc(OC)c5c(c34)OCCO5)cc2)c1	> 25000	34300	3	
	O=C(Nc1cc(C(F)(F)F)ccc1F)Nc1ccc(Oc2ncnc3cc(OCCCN4CCOCC4)c4c(c23)OCCO4)cc1Cl	5180	5980	4	
	COc1cc2nccc(Oc3ccc(NC(=O)NC4CC4)c(Cl)c3)c2cc1C(N)=O [LENVATINIB]			3	

SMILES	IC50 [4] [nM]	IC50 [1] [nM]	IC50 [2] [nM]	IC50 [3] [nM]	other results
COc1cc2ncnc(Oc3ccc(NC(=O)Nc4ccc(Cl)c(C(F)(F)F)c4)cc3)c2c2c1OCCO2	2.4	7540	3860	1.2	IC50 [5]: 376 nM; Activity [6]: 14 mm3; Activity [7]: 63.3 mm3; inhibition in vivo at 60 mg/kg [8]: 133%; inhibition in vivo at 60 mg/kg [9]: 118%; Activity [10]: Non-Toxic; Activity [11]: Non-Toxic; Activity [12]: Toxic
